# Test results as given in ChEMBL document CHEMBL3621169, “Synthesis of tetrazole compounds as a novel type of potential antimicrobial agents and their synergistic effects with clinical drugs and interactions with calf thymus DNA” (Medchemcomm, 2015).
# What was measured:
# [1] = Ionization constant, pKa of the compound by UV spectroscopy; format: physicochemical
# [2] = n-octanol/water partition coefficient, log P of the compound at 25 deg C after 24 hrs by saturation shake flask based UV spectroscopy; format: physicochemical
# Staphylococcus aureus [3] = test: Antibacterial activity against Staphylococcus aureus ATCC 25923 after 24 hrs by micro broth dilution method; format: functional; settings: ATCC 25923, 24 h
# Staphylococcus aureus [4] = test: Antibacterial activity against methicillin-resistant Staphylococcus aureus N315 after 24 hrs by micro broth dilution method; format: functional; settings: N315, 24 h
# Bacillus spizizenii = test: Antibacterial activity against Bacillus subtilis ATCC 6633 after 24 hrs by micro broth dilution method; format: functional; settings: ATCC 6633, 24 h
# Micrococcus luteus = test: Antibacterial activity against Micrococcus luteus ATCC 4698 after 24 hrs by micro broth dilution method; format: functional; settings: ATCC 4698, 24 h
# Bacillus sp. = test: Antibacterial activity against Bacillus proteus ATCC 13315 after 24 hrs by micro broth dilution method; format: functional; settings: Bacillus sp. (in: firmicutes), ATCC 13315, 24 h
# Escherichia coli = test: Antibacterial activity against Escherichia coli DH52 after 24 hrs by micro broth dilution method; format: functional; settings: DH52, 24 h
# Pseudomonas aeruginosa = test: Antibacterial activity against Pseudomonas aeruginosa ATCC 27853 after 24 hrs by micro broth dilution method; format: functional; settings: ATCC 27853, 24 h
# Shigella dysenteriae = test: Antibacterial activity against Shigella dysenteriae ATCC 51252 after 24 hrs by micro broth dilution method; format: functional; settings: ATCC 51252, 24 h
# Candida albicans = test: Antifungal activity against Candida albicans ATCC 90029 after 24 hrs by micro broth dilution method; format: functional; settings: ATCC 90029, 24 h
# Cyberlindnera jadinii = test: Antifungal activity against Candida utilis ATCC 9950 after 24 hrs by micro broth dilution method; format: functional; settings: Williopsis jadinii, ATCC 9950, 24 h
# Candida = test: Antifungal activity against Candida mycoderma after 24 hrs by micro broth dilution method; format: functional
# Aspergillus flavus = test: Antifungal activity against Aspergillus flavus after 24 hrs by micro broth dilution method; format: functional
Compound,pKa [1],logP at 24 h [2],MIC (Staphylococcus aureus [3]) [µg/mL],MIC (Staphylococcus aureus [4]) [µg/mL],MIC (Bacillus spizizenii) [µg/mL],MIC (Micrococcus luteus) [µg/mL],MIC (Bacillus sp.) [µg/mL],MIC (Escherichia coli) [µg/mL],MIC (Pseudomonas aeruginosa) [µg/mL],MIC (Shigella dysenteriae) [µg/mL],MIC (Candida albicans) [µg/mL],MIC (Cyberlindnera jadinii) [µg/mL],MIC (Candida) [µg/mL],MIC (Aspergillus flavus) [µg/mL]
Cc1ccc(N(Cc2nnn[nH]2)Cc2ccc(F)cc2F)cc1,4.23,1.42,64,64,64,64,64,64,32,64,32,32,16,32
CCCCCCCCCCN(Cc1nnn[nH]1)c1ccccc1,4.87,,64,32,32,32,64,32,128,64,32,16,32,32
Fc1ccc(CN(Cc2nnn[nH]2)c2ccccc2)cc1,4.2,1.26,64,64,64,256,128,64,64,64,32,16,16,32
Fc1ccc(CN(Cc2nnn[nH]2)c2ccccc2)c(F)c1,4.13,1.36,64,32,64,64,64,64,32,64,64,16,16,32
CCCCCCCCN(Cc1nnn[nH]1)c1ccccc1,4.83,2.24,128,128,128,64,128,64,256,128,64,128,32,128
CCCCCCN(Cc1nnn[nH]1)c1ccccc1,4.78,2.18,128,256,128,128,128,128,128,128,64,64,64,64
Fc1ccccc1CN(Cc1nnn[nH]1)c1ccccc1,4.22,1.28,64,64,32,64,64,64,64,128,32,32,16,64
Clc1ccc(CN(Cc2nnn[nH]2)c2ccccc2)c(Cl)c1,4.54,1.67,32,64,32,64,32,16,32,64,16,8,8,16
Cc1ccc(N(Cc2nnn[nH]2)Cc2ccc(Cl)cc2Cl)cc1,4.26,1.99,32,16,64,32,32,16,32,32,16,16,8,16
COc1ccc(N(Cc2nnn[nH]2)Cc2ccc(F)cc2F)cc1,4.31,1.37,64,64,64,64,64,64,64,64,32,16,16,32
COc1ccc(N(Cc2nnn[nH]2)Cc2ccc(Cl)cc2Cl)cc1,4.29,1.58,32,64,32,32,32,32,32,32,16,8,8,16
Fc1cccc(CN(Cc2nnn[nH]2)c2ccccc2)c1,4.19,1.29,64,64,32,64,64,32,64,32,32,16,32,32
Clc1ccc(CN(Cc2nnn[nH]2)c2ccccc2)cc1,4.38,1.39,64,128,32,64,32,32,64,64,16,32,16,32
Clc1ccc(CN(Cc2nnn[nH]2)c2ccccc2)cc1Cl,4.49,1.63,128,128,64,128,128,64,64,64,64,32,16,32
